Assay: wn = mass fraction of the nth substance listed
Conditions: 101 kPa, Liquid; for viscosity: Capillary tube (Ostwald / Ubbelohde) method; for mass density: Vibrating tube method

CCC(C)O (stereo not drawn) [butan-2-ol] + O
Conditions	mass density, 298.15 K [kg/m3]	mass density, 303.15 K [kg/m3]	mass density, 308.15 K [kg/m3]	viscosity, 298.15 K [mPa·s]	viscosity, 303.15 K [mPa·s]	viscosity, 308.15 K [mPa·s]
w1 = 0.7	863.8	859.6	855.1	3.342	2.795	2.377
w1 = 0.8	843.6	839.2	834.8	3.098	2.608	2.216
w1 = 0.9	822.8	818.8	813.5	2.812	2.375	2.029
